Measured values: ChEMBL document CHEMBL1159190, “Determination of the active conformation of 6-amino--[(4-diphenylmethyl-1-piperazinyl)methyl-9H-purine]-9-ethanol: a positive inotropic agent” (1993)

Columns and labels:
Rattus norvegicus [1] = species on record: Rattus norvegicus; assay: Contractile force determined in rat atria; format: functional
Rattus norvegicus [2] = species on record: Rattus norvegicus; assay: Functional refractory period (FRP) determined in rat atria
[3] = Rattus norvegicus, read-out: EC25

SMILES | EC25 (Rattus norvegicus [1]) [µM] | EC25 (Rattus norvegicus [2]) [µM] | EC25 (Rattus norvegicus [1]; [3]) [µM] | EC25 (Rattus norvegicus [2]; [3]) [µM]
Nc1ncnc2c1ncn2C1CCCC(N2CCN(C(c3ccccc3)c3ccccc3)CC2)C1O (cis isomer) | 20 | 17 | – | –
Nc1ncnc2c1ncn2C[C@]1(O)CC[C@H]2CN(C(c3ccccc3)c3ccccc3)CCN2C1 | – | – | 6.5 | 1.8
Nc1ncnc2c1ncn2C1CCCC(N2CCN(C(c3ccccc3)c3ccccc3)CC2)C1O (stereo in doubt) | 1.5 | 0.9 | – | –
Nc1ncnc2c1ncn2C[C@@]1(O)CC[C@H]2CN(C(c3ccccc3)c3ccccc3)CCN2C1 | – | – | 15 | 15
Nc1ncnc2c1ncn2C1CCCC(N2CCN(C(c3ccccc3)c3ccccc3)CC2)C1O (trans isomer) | 1.2 | 9 | – | –
Nc1ncnc2c1ncn2CC(O)CN1CCN(C(c2ccccc2)c2ccccc2)CC1 (configuration not stated) | – | – | 0.5 | 0.2
